Biological target: PIKfyve (Homo sapiens (Human), UniProt Q9Y2I7)
Test: PIKfyve EEA1 Assay (endosomal vesicle enlargement, high content imaging in U2OS cells)
Format: cell-based
Details: 3 hours of treatment, activity relative to maximal APY0201 activity
Protocol: PIKfyve EEA1 Assay. Genetic or pharmacological disruption of PIKfyve activity results in enlargement of endosomal vesicles. This enlargement was utilized as a surrogate readout of PIKFyve inhibition for routine triage of PIKfyve inhibitors. U2OS cells grown in 96-well assay plates were treated with compound diluted in DMEM media containing 10% fetal bovine serum. After 3 hours of treatment, cells were fixed with paraformaldehyde, permeabilized with 0.2% Triton-X in phosphate buffered saline and stained against EEA1. During the secondary antibody staining, cells were also stained with CellMask™ Deep Red and Hoechst to detect cytoplasms and nuclei respectively. Endosomal structures were visualized using a high content imager at 40× magnification. Images were analyzed using a linear classifier algorithm integrating EEA1 spot size, intensity and texture trained on images of cells treated with the potent reference compound APY0201. Compound activity was calculated by subtracting the DMSO signal and calculating percentage activity relative to maximal APY0201 activity. IC50 values were then calculated from concentration versus percent inhibition data by logistic regression.

PIKfyve, sequence (Q9Y2I7 whole entry): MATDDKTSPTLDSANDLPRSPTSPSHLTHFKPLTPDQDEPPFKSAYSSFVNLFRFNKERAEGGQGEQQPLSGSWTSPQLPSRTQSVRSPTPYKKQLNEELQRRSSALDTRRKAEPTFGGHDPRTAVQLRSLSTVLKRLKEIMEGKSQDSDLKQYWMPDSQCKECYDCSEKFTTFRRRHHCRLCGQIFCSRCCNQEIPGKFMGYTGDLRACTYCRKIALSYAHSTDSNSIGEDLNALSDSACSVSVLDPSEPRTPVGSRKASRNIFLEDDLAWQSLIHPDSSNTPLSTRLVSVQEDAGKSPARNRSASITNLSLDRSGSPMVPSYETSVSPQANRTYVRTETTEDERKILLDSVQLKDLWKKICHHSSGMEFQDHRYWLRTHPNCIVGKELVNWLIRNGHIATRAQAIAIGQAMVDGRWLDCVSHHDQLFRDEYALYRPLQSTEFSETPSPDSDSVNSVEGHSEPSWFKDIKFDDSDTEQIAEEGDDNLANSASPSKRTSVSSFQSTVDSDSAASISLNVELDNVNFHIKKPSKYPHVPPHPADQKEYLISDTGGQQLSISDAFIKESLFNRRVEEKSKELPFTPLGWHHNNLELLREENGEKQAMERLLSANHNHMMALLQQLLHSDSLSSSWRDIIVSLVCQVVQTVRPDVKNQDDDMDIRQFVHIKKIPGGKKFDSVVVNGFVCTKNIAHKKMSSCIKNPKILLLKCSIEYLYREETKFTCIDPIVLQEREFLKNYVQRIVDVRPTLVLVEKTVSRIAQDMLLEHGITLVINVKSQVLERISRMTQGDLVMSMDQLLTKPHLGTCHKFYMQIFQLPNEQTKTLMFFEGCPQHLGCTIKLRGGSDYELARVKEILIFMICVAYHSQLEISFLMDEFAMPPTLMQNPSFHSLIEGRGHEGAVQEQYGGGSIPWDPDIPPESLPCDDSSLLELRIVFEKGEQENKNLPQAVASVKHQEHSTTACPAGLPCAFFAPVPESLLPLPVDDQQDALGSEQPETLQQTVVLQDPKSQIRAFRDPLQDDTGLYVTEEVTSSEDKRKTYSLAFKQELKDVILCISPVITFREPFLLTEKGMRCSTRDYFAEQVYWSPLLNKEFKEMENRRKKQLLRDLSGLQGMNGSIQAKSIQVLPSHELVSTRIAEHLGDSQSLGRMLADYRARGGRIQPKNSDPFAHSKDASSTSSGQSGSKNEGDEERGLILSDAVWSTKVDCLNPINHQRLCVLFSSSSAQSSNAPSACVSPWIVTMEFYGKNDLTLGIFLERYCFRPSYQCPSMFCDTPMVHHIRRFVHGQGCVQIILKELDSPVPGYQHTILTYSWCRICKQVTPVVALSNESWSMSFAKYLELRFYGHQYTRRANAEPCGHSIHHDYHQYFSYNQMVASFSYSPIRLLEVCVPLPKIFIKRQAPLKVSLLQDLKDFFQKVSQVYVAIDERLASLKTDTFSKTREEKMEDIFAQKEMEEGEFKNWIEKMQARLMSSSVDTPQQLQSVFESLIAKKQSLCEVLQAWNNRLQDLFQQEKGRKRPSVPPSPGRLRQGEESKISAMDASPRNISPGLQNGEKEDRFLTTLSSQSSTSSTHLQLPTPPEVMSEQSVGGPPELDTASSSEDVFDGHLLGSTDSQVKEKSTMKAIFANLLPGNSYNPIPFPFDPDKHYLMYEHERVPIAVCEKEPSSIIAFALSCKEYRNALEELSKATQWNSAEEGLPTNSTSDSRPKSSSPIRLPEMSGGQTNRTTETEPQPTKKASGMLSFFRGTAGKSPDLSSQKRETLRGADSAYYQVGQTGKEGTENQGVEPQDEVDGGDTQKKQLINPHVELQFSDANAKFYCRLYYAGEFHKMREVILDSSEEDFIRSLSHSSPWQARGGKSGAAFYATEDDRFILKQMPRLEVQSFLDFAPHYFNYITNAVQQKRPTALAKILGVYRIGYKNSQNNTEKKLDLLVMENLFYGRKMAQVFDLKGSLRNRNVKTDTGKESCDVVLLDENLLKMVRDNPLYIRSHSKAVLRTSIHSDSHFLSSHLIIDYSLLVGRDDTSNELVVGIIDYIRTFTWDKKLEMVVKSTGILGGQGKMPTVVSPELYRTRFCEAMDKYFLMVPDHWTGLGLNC

SMILES	IC50 [µM]
COc1c(Nc2ccncc2)nc(N2CCOCC2)nc1-c1cccc(-c2ccn(C)n2)c1 [Compound 3, 5-methoxy-6-(3-(1-methyl-1H-pyrazol-3-yl)phenyl)-2-morpholino-N-(pyridin-4-yl)pyrimidin-4-amine]	0.01 to 0.1
COc1c(OCCc2ccccn2)nc(-c2cccc(-c3ccn(C)n3)c2)nc1N1CCOCC1 [Compound 4]	1 to 10
COc1c(Nc2ccncc2)nc(N2CCOCC2)nc1-c1cccc(-n2ccc(C)n2)c1 [Compound 9]	0.01 to 0.1
COc1c(Nc2cccnc2)nc(N2CCOCC2)nc1-c1cccc(-c2ccn(C)n2)c1 [Compound 20, 5-methoxy-6-(3-(1-methyl-1H-pyrazol-3-yl)phenyl)-2-morpholino-N-(pyridin-3-yl)pyrimidin-4-amine]	0.1 to 1
COc1ccc(-c2nc(N3CCOCC3)nc(Nc3cccnc3)c2OC)cc1OC [Compound 22]	1 to 10
COc1c(Nc2cccnc2)nc(N2CCOCC2)nc1-c1cccc(C(=O)N(C)C)c1 [Compound 24]	1 to 10
COc1c(Nc2cccnc2)nc(N2CCOCC2)nc1-c1ccnc(-c2ccn(C)n2)c1 [Compound 25, 5-methoxy-6-(2-(1-methyl-1H-pyrazol-3-yl)pyridin-4-yl)-2-morpholino-N-(pyridin-3-yl)pyrimidin-4-amine]	0.1 to 1
COc1c(Nc2cccnc2)nc(N2CCOCC2)nc1-c1cccc(N2CCC(O)C2)c1 (stereo not drawn) [Compound 26, 1-(3-(5-methoxy-2-morpholino-6-(pyridin-3-ylamino)pyrimidin-4-yl)phenyl)pyrrolidin-3-ol]	1 to 10
COc1c(Nc2cccnc2)nc(N2CCOCC2)nc1-c1cccc(N2CCOCC2=O)c1 [Compound 28, 4-(3-(5-methoxy-2-morpholino-6-(pyridin-3-ylamino)pyrimidin-4-yl)phenyl)morpholin-3-one]	1 to 10
COc1c(Nc2cccnc2)nc(-c2ccncc2)nc1-c1cccc(-c2ccn(C)n2)c1 [Compound 34, 5-methoxy-6-(3-(1-methyl-H-pyrazol-3-yl)phenyl)-N-(pyridin-3-yl)-2-(pyridin-4-yl)pyrimidin-4-amine]	0.01 to 0.1
COc1c(Nc2ccncc2)nc(OC[C@H]2COCCN2)nc1-c1cccc(-c2ccn(C)n2)c1 [Compound 42, (R)-5-methoxy-6-(3-(1-methyl-1H-pyrazol-3-yl)phenyl)-2-(morpholin-3-ylmethoxy)-N-(pyridin-4-yl)pyrimidin-4-amine]	1 to 10
Cn1ccc(-c2cccc(-c3nc(N4CCOCC4)nc(Nc4cccnc4)c3P(C)(C)=O)c2)n1 [Compound 45, dimethyl(4-(3-(1-methyl-1H-pyrazol-3-yl)phenyl)-2-morpholino-6-(pyridin-3-ylamino)pyrimidin-6-yl)phosphine oxide]	1 to 10
COc1c(Nc2ccncc2)nc(N2CCOCC2)nc1-c1cccc(N2CCC(O)CC2)c1 [Compound 48, 1-(3-(5-methoxy-2-morpholino-6-(pyridin-4-ylamino)pyrimidin-4-yl)phenyl)piperidin-4-ol]	0.1 to 1
COc1c(-c2cccc(-c3ccn(C)n3)c2)nc(N2CCOCC2)nc1-c1cnn(C)c1 [Compound 52, 4-(5-methoxy-4-(3-(1-methyl-1H-pyrazol-3-yl)phenyl)-6-(1-methyl-1H-pyrazol-4-yl)pyrimidin-2-yl)morpholine]	1 to 10
COc1c(Nc2ccncc2)nc(-c2ccncc2)nc1-c1cccc(-c2ccn(C)n2)c1 [Compound 53, 5-methoxy-6-(3-(1-methyl-1H-pyrazol-3-yl)phenyl)-N, 2-di(pyridin-4-yl)pyrimidin-4-amine]	0.01 to 0.1
Cn1ccc(-c2cccc(-c3nc(N4CCOCC4)nc(Nc4cccnc4)c3[S+](C)[O-])c2)n1 (stereo not drawn) [Compound 59]	1 to 10
COc1c(-c2cccc(-n3cccn3)c2)nc(N2CCOCC2)nc1-c1nc(-c2ccccc2)c[nH]1 [Compound 61, 4-(4-(3-(1H-pyrazol-1-yl)phenyl)-6-methoxy-6-(4-phenyl-1H-imidazol-2-yl)pyrimidin-2-yl)morpholine]	1 to 10
O=c1[nH]c2ccc(-n3cccn3)cc2c2nc(N3CCOCC3)nc(Nc3ccncc3)c12 [Compound 64, 2-morpholino-9-pyrazol-1-yl-4-(4-pyridylamino)-6H-pyrimido[5,4-c]quinolin-5-one]	1 to 10
CN(C)C(=O)c1c(Nc2ccncc2)nc(N2CCOCC2)nc1-c1cccc(-c2ccn(C)n2)c1 [Compound 66]	0.1 to 1
Cn1ccc(-c2cccc(-c3nc(N4CCOCC4)nc(Nc4ccncc4)c3C(=O)N3CCC3)c2)n1 [Compound 68]	0.01 to 0.1
OCc1c(Nc2cccnc2)nc(N2CCOCC2)nc1-c1cccc(-n2cccn2)c1 [Compound 70, [2-morpholino-4-(3-pyrazol-1-ylphenyl)-6-(3-pyridylamino)pyrimidin-6-yl]methanol]	1 to 10

The remaining lines, values ahead:

IC50 [µM]	SMILES
1 to 10	COc1c(-c2cccc(-c3ccn(C)n3)c2)nc(OCCc2ccccn2)nc1N1CCOCC1 [Compound 5, 4-(5-methoxy-6-(3-(1-methyl-H-pyrazol-3-yl)phenyl)-2-(2-(pyridin-2-yl)ethoxy)pyrimidin-4-yl)morpholine]
1 to 10	COc1cc(-c2nc(N3CCOCC3)nc(Nc3cccnc3)c2OC)cnc1OC [Compound 18, 6-(5,6-dimethoxypyridin-3-yl)-5-methoxy-2-morpholino-N-(pyridin-3-yl)pyrimidin-4-amine]
1 to 10	COc1c(Nc2cccnc2)nc(N2CCOCC2)nc1-c1cccc(-c2cccnn2)c1 [Compound 21]
1 to 10	COc1c(Nc2cccnc2)nc(N2CCOCC2)nc1-c1cccc(C#N)c1 [Compound 23, 3-(5-methoxy-2-morpholino-6-(pyridin-3-ylamino)pyrimidin-4-yl)benzonitrile]
1 to 10	COc1c(Nc2cccnc2)nc(N2CCOCC2)nc1-c1cccc(N2CCN(C)C(=O)C2)c1 [Compound 27, 4-(3-(5-methoxy-2-morpholino-6-(pyridin-3-ylamino)pyrimidin-4-yl)phenyl)-1-methylpiperazin-2-one]
1 to 10	COc1c(Nc2cccnc2)nc(N2CCOCC2)nc1-c1cccc(N2CCCC2=O)c1 [Compound 29, 1-(3-(5-methoxy-2-morpholino-6-(pyridin-3-ylamino)pyrimidin-4-yl)phenyl)pyrrolidin-2-one]
1 to 10	COc1c(NCc2cccnn2)nc(N2CCOCC2)nc1-c1cccc(-c2ccn(C)n2)c1 [Compound 31, 5-methoxy-6-(3-(1-methyl-1H-pyrazol-3-yl)phenyl)-2-morpholino-N-(pyridazin-3-ylmethyl)pyrimidin-4-amine]
1 to 10	CN1CCCC(Oc2nc(N3CCOCC3)nc3c2OCc2cc(-c4ccccc4)nn2-3)C1 (stereo not drawn) [Compound 35, 4-((1-methylpiperidin-3-yl)oxy)-2-morpholino-8-phenyl-6H-pyrazolo[1,5-d]pyrimido[5,4-b][1,4]oxazine]
1 to 10	COc1c(N2CCOCC2)nc(-c2cccc(-n3cccn3)c2)nc1N1CCN(C)C(=O)C1 [Compound 36]
1 to 10	COc1c(-c2cccc(-n3cccn3)c2)nc(N2CCN(C)C(=O)C2)nc1N1CCOCC1 [Compound 37, 4-[5-methoxy-4-morpholino-6-(3-pyrazol-1-ylphenyl)pyrimidin-2-yl]-1-methyl-piperazin-2-one]
1 to 10	COc1c(Nc2ccncc2)nc(N2CCOC[C@H]2CO)nc1-c1cccc(-c2ccn(C)n2)c1 [Compound 43]
0.1 to 1	Clc1c(Nc2ccncc2)nc(N2CCOCC2)nc1-c1cccc(-n2cccn2)c1 [Compound 50, 6-(3-(1H-pyrazol-1-yl)phenyl)-5-chloro-2-morpholino-N-(pyridin-4-yl)pyrimidin-4-amine]
0.1 to 1	COc1ccc(-c2nc(N3CCOCC3)nc(Nc3ccncc3)c2OC)nc1OC [Compound 51, 6-(5,6-dimethoxypyridin-2-yl)-5-methoxy-2-morpholino-N-(pyridin-4-yl)pyrimidin-4-amine]
0.01 to 0.1	COc1c(Nc2ccncc2)nc(N2CCOCC2)nc1-c1cccc(-c2ncco2)c1 [Compound 54, 5-methoxy-2-morpholino-6-(3-(oxazol-2-yl)phenyl)-N-(pyridin-4-yl)pyrimidin-4-amine]
1 to 10	COc1c(Nc2cccnc2)nc(N2CCOCC2)nc1-c1cccc(N2CCC(O)CC2)c1 [Compound 55, 1-(3-(5-methoxy-2-morpholino-6-(pyridin-3-ylamino)pyrimidin-4-yl)phenyl)piperidin-4-ol]
0.1 to 1	COc1c(Nc2ccncc2)nc(N2CCOCC2)nc1-c1ccnc(-c2ccn(C)n2)n1 [Compound 56, 5-methoxy-2′-(I-methyl-1H-pyrazol-3-yl)-2-morpholino-N-(pyridin-4-yl)-4,4′-bipyrimidin-4-amine]
0.1 to 1	COc1c(-c2cccc(-c3ccn(C)n3)c2)nc(N2CCOCC2)nc1-c1ccc2ncccc2c1 [Compound 58, 4-(5-methoxy-4-(3-(1-methyl-1H-pyrazol-3-yl)phenyl)-6-(quinolin-6-yl)pyrimidin-2-yl)morpholine]
1 to 10	COc1c(-c2cccc(-c3ccn(C)n3)c2)nc(N2CCOCC2)nc1N1CCN(C)C(=O)C1 [Compound 60, 4-(5-methoxy-6-(3-(1-methyl-1H-pyrazol-3-yl)phenyl)-2-morpholinopyrimidin-4-yl)-1-methylpiperazin-2-one]
1 to 10	COc1c(NCc2cccnc2)nc(-c2cccc(-c3ccn(C)n3)c2)nc1-c1ccncc1 [Compound 63, 5-methoxy-2-(3-(1-methyl-1H-pyrazol-3-yl)phenyl)-N-(pyridin-3-ylmethyl)-6-(pyridin-4-yl)pyrimidin-4-amine]
1 to 10	CN(C)C(=O)c1c(Nc2ccncc2)nc(N2CCOCC2)nc1-c1cccc(C#N)c1 [Compound 67]
1 to 10	CN(C)C(=O)c1c(Nc2cccnc2)nc(N2CCOCC2)nc1-c1cccc(-n2cccn2)c1 [Compound 69]

— patent publication US20250197375A1, “PYRIMIDINES AND METHODS OF THEIR USE” (Kineta, Inc., priority 2021, published 2025)
